Results on six compounds are retold here after patent publication US20060052362A1, “Skeletal muscle protecting agent” (priority 2003, published 2006).

Data set [1] relates to Human normal skeletal muscle cells. As to the kind of experiment: Effect of Test compound 3 on cytotoxicity of HMG-CoA reductase inhibitor (2), pretreatment 1 day. The class given is cell-based. On the procedure: Effect of Test Compound 3 on Cytotoxicity of HMG-CoA Reductase Inhibitor (2)
The drug in Treatment 1 was added and after 1 day, the medium was completely removed.

For data set [2] the test system is unchanged. Briefly: Effect of Test compound 3 on cytotoxicity of HMG-CoA reductase inhibitor (1), drugs added at the same time. It counts as cell-based. The note with it: 3 days. An excerpt: Effect of Test Compound 3 on Cytotoxicity of HMG-CoA Reductase Inhibitor (1)
The test system is the same in data set [3]. To be noted: for The number of the live cells (% of Group 1): 3 days.
For data set [4], the system named is geranylgeraniol (GGOH) content in soleus muscle. Briefly: Increasing effect on geranylgeraniol (GGOH) content in soleus muscle. The class given is in vivo. The note with it: male SD rat, Mean ± SE (N = 4). On the procedure:
Increasing Effect on Geranylgeraniol (GGOH) Content in Soleus Muscle
To 6 week-old male SD rat (4 per group) was orally administered forcedly by means of a stomach sonde a vehicle or Test compounds 1 or 2 at a dose of 10 mL/kg once a day for 14 days so as to be in an amount of 40 or 200 mg/kg. In the next morning of the 14th administration, the rat was killed under ether anesthesia. Immediately, the soleus muscle was collected and frozen on a dry ice, and then kept at −80° C. Later, to the muscle homogenate was added phosphatase for dephosphorylation, and then the concentration of geranylgeraniol (sum total of geranylgeranyl pyrophosphate and geranylgeraniol) in the muscle was determined with LC/MS/MS (Table 1).

In another data set the target is T1, squalene synthase (Homo sapiens, UniProt P37268).
T1 sequence (P37268 1-417): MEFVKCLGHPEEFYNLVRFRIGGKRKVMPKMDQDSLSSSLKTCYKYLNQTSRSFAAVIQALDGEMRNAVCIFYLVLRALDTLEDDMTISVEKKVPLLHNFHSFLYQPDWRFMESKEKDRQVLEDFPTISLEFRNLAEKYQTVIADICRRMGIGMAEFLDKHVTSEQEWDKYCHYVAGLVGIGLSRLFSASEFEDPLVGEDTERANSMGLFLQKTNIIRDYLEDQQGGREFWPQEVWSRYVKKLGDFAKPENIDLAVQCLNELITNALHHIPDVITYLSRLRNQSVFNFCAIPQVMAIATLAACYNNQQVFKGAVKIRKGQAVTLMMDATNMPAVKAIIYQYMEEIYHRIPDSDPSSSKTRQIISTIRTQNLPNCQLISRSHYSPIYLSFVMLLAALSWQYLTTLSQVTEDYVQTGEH
The note with it: described in Test 1 of JP-A No. 9-136880; cited from earlier work.

Where [5] appears, read: single drug 10 μM, other treatment vehicle, Mean ± SE (N = 3).
Setting [6] is: 40 mg/kg oral once a day for 14 days.
Where [7] appears, read: 200 mg/kg oral once a day for 14 days.

Molecules are shown by their SMILES. Like-named read-outs stand apart in the source and are kept apart here.

With `CC(C)c1c(C(=O)Nc2ccccc2)c(-c2ccccc2)c(-c2ccc(F)cc2)n1CC[C@@H](O)C[C@@H](O)CC(=O)O` [Atorvastatin, atorvastatin, reference compound], the “The number of the live cells (% of Group 1)” value (shortened to “The number … (% of Group 1)”) in data set [1] (vehicle 1 day, then Atorvastatin 10 μM 3 days) is given as 57 ± 1.1 % of Group 1; in data set [1] (vehicle 1 day, then Atorvastatin 100 μM 3 days), 35 ± 1.9 % of Group 1; in data set [2] (Atorvastatin 100 μM alone (Treatment 1 vehicle)), 34 ± 0.6 % of Group 1; in data set [3] (setting [5]) it was 52.0 ± 0.9 % of Group 1.
On to `CC(C)=CCC/C(C)=C/CC/C(C)=C/CC/C(C)=C/COP(=O)(O)OP(=O)(O)O` [GGPP, geranylgeranyl pyrophosphate], for which the “The number … (% of Group 1)” value in data set [3] (GGPP 10 μM added together with Atorvastatin 10 μM) was 67.8 ± 1.3$ % of Group 1; in data set [3] (GGPP 10 μM added together with Simvastatin 10 μM) it was 72.3 ± 1.6 % of Group 1; in data set [3] (setting [5]), 93.5 ± 0.8 % of Group 1. The “activity reducing cytotoxicity in skeletal muscle cells (in words)” value in data set [3] (summary of Table 2) was “had an activity reducing cytotoxicity in skeletal muscle cells”.
As for `CCC(C)(C)C(=O)O[C@H]1C[C@@H](C)C=C2C=C[C@H](C)[C@H](CC[C@@H]3C[C@@H](O)CC(=O)O3)[C@H]21` [Simvastatin, simvastatin], in data set [3] (setting [5]), the “The number … (% of Group 1)” value is given as 46.2 ± 1.5 % of Group 1.
For `COc1cccc([C@H]2O[C@H](CC(=O)N3CCC(CC(=O)O)CC3)C(=O)N(CC(C)(C)COC(C)=O)c3ccc(Cl)cc32)c1OC` [Test compound 1, N-[[(3R,5S)-1-(3-acetoxy-2,2-dimethylpropyl)-7-chloro-5-(2,3-dimethoxyphenyl)-2-oxo-1,2,3,5-tetrahydro-4,1-benzoxazepin-3-yl]acetyl]piperidine-4-acetic acid], the “GGOH content in the soleus muscle” value in data set [4] (setting [6]) is recorded as 0.224 ± 0.017 μg/g soleus muscle; in data set [4] (setting [7]) it was 0.255 ± 0.027 μg/g soleus muscle.
Consider `COc1cccc([C@H]2O[C@H](CC(=O)Nc3cccc(CCC(=O)O)c3)C(=O)N(CC(C)(C)CO)c3ccc(Cl)cc32)c1OC` [Test compound 2, 3-[3-[[[(3R,5S)-7-chloro-5-(2,3-dimethoxyphenyl)-1-(3-hydroxy-2,2-dimethylpropyl)-2-oxo-1,2,3,5-tetrahydro-4,1-benzoxazepin-3-yl]acetyl]amino]phenyl]propionic acid], for which the “inhibitory activity against squalene synthase” value on squalene synthase was “has inhibitory activity against squalene synthase”. Further, the “GGOH content in the soleus muscle” value in data set [4] (setting [6]) was found to be 0.225 ± 0.019 μg/g soleus muscle; in data set [4] (setting [7]) it was 0.255 ± 0.006 μg/g soleus muscle.
Turning to `COc1cccc([C@H]2O[C@H](CC(=O)N3CCC(CC(=O)O)CC3)C(=O)N(CC(C)(C)CO)c3ccc(Cl)cc32)c1OC` [Test compound 3, N-[[(3R,5S)-7-chloro-5-(2,3-dimethoxyphenyl)-1-(3-hydroxy-2,2-dimethylpropyl)-2-oxo-1,2,3,5-tetrahydro-4,1-benzoxazepin-3-yl]acetyl]piperidine-4-acetic acid], the “inhibitory activity against squalene synthase” value at squalene synthase was “has inhibitory activity against squalene synthase”. Also, the “The number … (% of Group 1)” value was 76 ± 1.8 % of Group 1 in data set [1] (Test compound 3 10 μM for 1 day, medium removed, then Atorvastatin 10 μM 3 days); 45 ± 0.2 % of Group 1 in data set [1] (Test compound 3 10 μM for 1 day, medium removed, then Atorvastatin 100 μM 3 days); 98 ± 2.3 % of Group 1 in data set [1] (Test compound 3 10 μM for 1 day, medium removed, then vehicle 3 days, Mean ± SE (N = 3)); 42 ± 0.5 % of Group 1 in data set [2] (Test compound 3 10 μM added at the same time as Atorvastatin 100 μM); 96 ± 1.2 % of Group 1 in data set [2] (Test compound 3 10 μM alone (Treatment 2 vehicle), Mean ± SE (N = 3)).
